Measured values as given in ChEMBL document CHEMBL4602644, “Synthesis of PJOV56, a new quinoxalinyl-hydrazone derivative able to induce autophagy and apoptosis in colorectal cancer cells, and related compounds” (Bioorg Med Chem Lett, 2020).
The source made the active and inactive calls. The calls are words filed in the database; no cut-off is given here.

Key:
[1] = test system: HCT-116; test: Cytotoxicity against human HCT116 cells assessed as cell growth inhibition at 5 ug/ml measured after 72 hrs by MTT assay relative to control; format: functional; details: HCT-116, 72 h, read-out: GI
[2] = test system: SF-295; test: Cytotoxicity against human SF295 cells assessed as reduction in cell viability measured after 72 hrs by MTT assay; format: functional, cell-based; details: SF-295, 72 h
[3] = test system: HCT-116; test: Cytotoxicity against human HCT116 cells assessed as reduction in cell viability measured after 72 hrs by MTT assay; format: functional, cell-based; details: HCT-116, 72 h
[4] = test system: HCT-116; test: Cytotoxicity against human HCT116 cells assessed as reduction in cell viability measured after 48 hrs by MTT assay; format: functional, cell-based; details: HCT-116, 48 h
[5] = test system: HCT-116; test: Induction of morphological changes in human HCT116 cells assessed as increase in cell size at 1.5 to 6 uM measured after 48 hrs by propidium iodide staining based flow cytometry; format: functional
[6] = test system: HCT-116; test: Induction of autophagy in human HCT116 cells assessed as formation of autophagic vacuoles at 3 to 6 uM measured after 48 hrs by monodansylcadaverine staining based confocal microscopy; format: functional, cell-based
[7] = test system: HCT-116; test: Induction of autophagy in human HCT116 cells increase in Beclin 1 level at 3 uM measured after 48 hrs by Western blot analysis; format: functional, cell-based
[8] = test system: HCT-116; test: Induction of autophagy in human HCT116 cells increase in LC3A/B-II level at 3 to 6 uM measured after 48 hrs by Western blot analysis; format: functional, cell-based
[9] = test system: HCT-116; test: Induction of apoptosis in human HCT116 cells assessed as late apoptotic cells at 1.5 uM measured after 48 hrs by annexinV-PE/7-AAD staining based flow cytometric analysis (reference value: 0.18 %); format: functional
[10] = test system: HCT-116; test: Induction of apoptosis in human HCT116 cells assessed as early apoptotic cells at 3 uM measured after 48 hrs by annexinV-PE/7-AAD staining based flow cytometric analysis (reference value: 6.53 %); format: functional
[11] = test system: HCT-116; test: Induction of apoptosis in human HCT116 cells assessed as late apoptotic cells at 6 uM measured after 48 hrs by annexinV-PE/7-AAD staining based flow cytometric analysis (reference value: 0.18 %); format: functional
[12] = test system: HCT-116; test: Disruption of membrane integrity in human HCT116 cells assessed as increase in non-viable cells at 3 uM measured after 48 hrs by propidium iodide staining based flow cytometry relative to control; format: functional
[13] = test system: HCT-116; test: Disruption of membrane integrity in human HCT116 cells at 1.5 to 3 uM measured after 48 hrs by propidium iodide staining based flow cytometry; format: functional, cell-based
[14] = test system: HCT-116; test: Induction of apoptosis in human HCT116 cells assessed as early apoptotic cells at 6 uM measured after 48 hrs by annexin-V staining based flow cytometry (reference value: 0.34 %); format: functional
[15] = test system: HCT-116; test: Cell cycle arrest in human HCT116 cells assessed as accumulation at S phase at 1.5 uM measured after 48 hrs by propidium iodide staining based flow cytometry (reference value: 33.29 %); format: functional
[16] = test system: HCT-116; test: Cell cycle arrest in human HCT116 cells assessed as accumulation at G2/M phase at 1.5 uM measured after 48 hrs by propidium iodide staining based flow cytometry (reference value: 24.98 %); format: functional
[17] = test system: HCT-116; test: Cell cycle arrest in human HCT116 cells assessed as accumulation at S phase at 3 uM measured after 48 hrs by propidium iodide staining based flow cytometry (reference value: 33.29 %); format: functional

`C(=N\Nc1cnc2ccccc2n1)/c1ccccn1` gave an inhibition of growth at 5 µg/mL [1] of 80.4%, an IC50 [2] of 3.88 µM and an IC50 [3] of 1830 nM. The IC50 [4] was 3.04 µM, the Activity [5] was “Active” and the Activity [6] was “Active”. For the same compound, the Activity [7] was “Active”, the Activity [8] was “Active” and the Activity [9] was 1.14%. It also gave an Activity [10] of 5.18%, an Activity [11] of 17.9% and an Activity [12] of 9.46%. The Activity [13] was “inactive”, the Activity [14] was 25.6% and the Activity [15] was 34.31%. It also gave an Activity [16] of 29.99% and an Activity [17] of 55.35%.
